Data taken from PMC10518717, “High-Throughput Screening and Proteomic Characterization of Compounds Targeting Myeloid-Derived Suppressor Cells” (Molecular & Cellular Proteomics : MCP, 2023).

System: human PMN-MDSC
Assay: Human PMN-MDSC assay (PMN-MDSC/CD8+ T cell/DC coculture, IFNγ HTRF)
Format: cell-based
Details: 10 μM
From the text: CD34+ cells were isolated from fresh human blood from healthy donors, obtained from the Health Services unit of the Healthcare Business of Merck KGaA, Darmstadt, Germany. First, peripheral blood mononuclear cells (PBMC) were isolated via density centrifugation, and then the target cells were isolated via magnetic bead labeling using the EasySep Human CD34 Positive Selection Kit II (Stemcell Technologies #17856). After isolation, the CD34+ cells were cultivated in cultivation medium (StemSpan SFEM II (Stemcell Technologies #09655) + 10% (1×) StemSpan CD34+ Expansion (Stemcell Technologies #02691)) for 10 to 12 days. At that point, the media was exchanged for fresh […] medium (Gibco #31870), supplemented with 10% FCS, 2 mM L-glutamine, 100 U/ml penicillin/streptomycin, 1 mM sodium-pyruvate, 1 mM non-essential amino acids, 50 μM ß-mercaptoethanol, and 100 ng/ml human G-CSF (PeproTech, AF-300-23), and the cells were incubated for 10 days in order to derive human PMN-MDSC.
Monocytes were isolated from fresh human blood from healthy donors, obtained from Health Services unit of the Healthcare Business of Merck KGaA, Darmstadt, Germany. […]
PMN-MDSC and DC were differentiated as described above. […] At that point, the supernatant was transferred and IFNγ was measured using a human INFγ HTRF kit (Cisbio #62[…]) following standard assay protocol provided by the manufacturer. The data was analyzed using Genedata software (GeneData Inc, https://www.genedata.com/) with 0% defined by the DMSO-treated wells and 100% effect defined by the wells without PMN-MDSC. […]
After confirming the physiological and pharmacological suitability of the NUP-MDSC model, we developed a high-throughput screen for the identification of potential MDSC modulators (Fig. 4A and supplemental Fig. S3). […] After 72 h, T cell activity was assessed by recording T cell proliferation and IFN-γ secretion. […] Compounds were declared hits if reversing the suppression effect of NUP-MDSC on T cells with ≥50% in either readout resulting in 392 hit compounds (Fig. 4B). […]

CCOC(=O)c1nnn(-c2nn3nnnc3c3ccccc23)c1C [compound 2]
% effect on IFNγ secretion (mild effect in 4 of 23 donor combinations): < 40% | activity on IFNγ secretion (some donors of 23 donor combinations): no activity | % effect on IFNγ secretion (strong effect in 5 of 23 donor combinations): > 40%
